From patent US10285983B2, “3-(1H-pyrrolo[2,3-B]pyridin-2-yl)-1H-pyrazolo[3,4-B] pyridines and therapeutic uses thereof” (Samumed, LLC, priority 2015, dated 2019)

Columns and labels:
Assay type in all cases: cell-based
[1] = tested on: Wnt activity (Sp5-Luc reporter, SW480 colon carcinoma cells); test: Wnt activity screening assay, Sp5-Luc reporter gene in SW480 cells; conditions: Homo sapiens; for inhibition at 10 µM: given for EC50 >10 μM, read-out: percent inhibition at 10 μM; for EC50: overnight incubation
How it was run: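 SW480 colon carcinoma cells stably expressing firefly luciferase under a human Sp5 promoter (eight TCF/LEF sites), plated in 1% FBS medium. 10-point 1:3 dilutions from 10 μM, 0.1% DMSO final, overnight at 37 °C; luminescence normalized to DMSO, four-parameter fit for EC50, % inhibition at 10 μM if EC50 >10 μM.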

SW480 colon cancer cells = test: Cell viability assay (CellTiter-Blue); conditions: Homo sapiens, 96 h, four days; for inhibition at 10 µM: given for EC50 >10 μM, read-out: percent inhibition at 10 μM
How it was run: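 Resazurin reduction (Ex 560/Em 590 nm, ~3 h reagent incubation) served as the viability read-out after SW480 cells were treated for four days at 37 °C. Doses ran from 10 μM down to 0.0045 μM in eight 1:3 steps. Curves fitted non-linearly for EC50, else % inhibition at 10 μM reported.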

[2] = tested on: primary human fibroblasts derived from IPF patients (LL29 cells); test: Inhibition of fibrotic process, αSMA staining in TGF-β1 treated LL29 fibroblasts; conditions: Fibroblast, 96 h, TGF-β1 20 ng/mL, 4 days; for EC50: % αSMA positive cells; for inhibition at 10 µM: given for EC50 >10 μM, read-out: percent inhibition at 10 μM
How it was run: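 IPF-patient LL29 lung fibroblasts in 1% FBS medium received compound (11-point, 1:2 dilution, 0.1% DMSO) plus TGF-β1 20 ng/mL, 4 days at 37 °C. Percent αSMA-positive cells among SYTOX-negative cells quantified by immunofluorescence imaging, normalized to TGF-β1/DMSO wells. EC50 by non-linear regression on triplicates; above 10 μM, % inhibition at 10 μM given.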

EC50 [1] | EC50 (SW480 colon cancer cells) | SMILES | inhibition at 10 µM [1] | inhibition at 10 µM (SW480 colon cancer cells) | EC50 [2] | inhibition at 10 µM [2]
> 10 µM | > 10 µM | CC(C)(C)CC(=O)Nc1cncc(-c2cnc3[nH]nc(-c4cc5c(-c6ccncc6)ccnc5[nH]4)c3c2)c1 [Compound 128, 3,3-Dimethyl-N-(5-(3-(4-(pyridin-4-yl)-1H-pyrrolo[2,3-b]pyridin-2-yl)-1H-pyrazolo[3,4-b]pyridin-5-yl)pyridin-3-yl)butanamide] | 0% | 10.7% | > 10 µM | 0%
> 10 µM | > 10 µM | CCCC(=O)Nc1cncc(-c2cnc3[nH]nc(-c4cc5c(-c6ccncc6)ccnc5[nH]4)c3c2)c1 [Compound 129, N-(5-(3-(4-(Pyridin-4-yl)-1H-pyrrolo[2,3-b]pyridin-2-yl)-1H-pyrazolo[3,4-b]pyridin-5-yl)pyridin-3-yl)butyramide] | 35% | 3.8% | 0.621 µM | –
> 10 µM | > 10 µM | c1cc(-c2cnc3[nH]nc(-c4cc5c(-c6ccncc6)ccnc5[nH]4)c3c2)ccn1 [Compound 130, 5-(Pyridin-4-yl)-3-(4-(pyridin-4-yl)-1H-pyrrolo[2,3-b]pyridin-2-yl)-1H-pyrazolo[3,4-b]pyridine] | 6.3% | 5.7% | > 10 µM | 20.5%
> 10 µM | > 10 µM | O=C(Nc1cncc(-c2cnc3[nH]nc(-c4cc5c(-c6ccncc6)ccnc5[nH]4)c3c2)c1)C1CCCCC1 [Compound 135, N-(5-(3-(4-(Pyridin-4-yl)-1H-pyrrolo[2,3-b]pyridin-2-yl)-1H-pyrazolo[3,4-b]pyridin-5-yl)pyridin-3-yl)cyclohexanecarboxamide] | 16.4% | 13.9% | > 10 µM | 19.8%
> 10 µM | > 10 µM | c1ccc(CNCc2cncc(-c3cnc4[nH]nc(-c5cc6c(-c7ccncc7)ccnc6[nH]5)c4c3)c2)cc1 [Compound 136, N-Benzyl-1-(5-(3-(4-(pyridin-4-yl)-1H-pyrrolo[2,3-b]pyridin-2-yl)-1H-pyrazolo[3,4-b]pyridin-5-yl)pyridin-3-yl)methanamine] | 0% | 14.9% | 3.04 µM | –
> 10 µM | > 10 µM | c1ccc(-c2cnc3[nH]nc(-c4cc5c(-c6ccncc6)ccnc5[nH]4)c3c2)nc1 [Compound 140, 5-(Pyridin-2-yl)-3-(4-(pyridin-4-yl)-1H-pyrrolo[2,3-b]pyridin-2-yl)-1H-pyrazolo[3,4-b]pyridine] | 12.3% | 20.2% | > 10 µM | 24.5%
> 10 µM | > 10 µM | CC(C)(C)C(=O)Nc1cncc(-c2cnc3[nH]nc(-c4cc5c(N6CCCCC6)ccnc5[nH]4)c3c2)c1 [Compound 176, N-(5-(3-(4-(Piperidin-1-yl)-1H-pyrrolo[2,3-b]pyridin-2-yl)-1H-pyrazolo[3,4-b]pyridin-5-yl)pyridin-3-yl)pivalamide] | 5% | 2.9% | > 10 µM | 22.4%

The next lines start with the compound.

SMILES | EC50 [1] | EC50 (SW480 colon cancer cells) | inhibition at 10 µM [1] | inhibition at 10 µM (SW480 colon cancer cells) | EC50 [2] | inhibition at 10 µM [2]
O=C(Nc1cncc(-c2cnc3[nH]nc(-c4cc5c(-c6ccccc6F)ccnc5[nH]4)c3c2)c1)C1CCCC1 [Compound 78, N-(5-(3-(4-(2-Fluorophenyl)-1H-pyrrolo[2,3-b]pyridin-2-yl)-1H-pyrazolo [3,4-b]pyridin-5-yl)pyridin-3-yl)cyclopentanecarboxamide] | > 10 µM | > 10 µM | 17% | 11.3% | 7.09 µM | –
CC(C)CC(=O)Nc1cncc(-c2cnc3[nH]nc(-c4cc5c(-c6cccnc6)ccnc5[nH]4)c3c2)c1 [Compound 86, 3-Methyl-N-(5-(3-(4-(pyridin-3-yl)-1H-pyrrolo[2,3-b]pyridin-2-yl)-1H-pyrazolo[3,4-b]pyridin-5-yl)pyridin-3-yl)butanamide] | > 10 µM | > 10 µM | 2.7% | 24.1% | > 10 µM | 0%
c1cncc(-c2cnc3[nH]nc(-c4cc5c(-c6cccnc6)ccnc5[nH]4)c3c2)c1 [Compound 88, 5-(Pyridin-3-yl)-3-(4-(pyridin-3-yl)-1H-pyrrolo[2,3-b]pyridin-2-yl)-1H-pyrazolo[3,4-b]pyridine] | > 10 µM | > 10 µM | 17% | 10.8% | > 10 µM | 0%
CCNCc1cncc(-c2cnc3[nH]nc(-c4cc5c(-c6cccnc6)ccnc5[nH]4)c3c2)c1 [Compound 90, N-((5-(3-(4-(Pyridin-3-yl)-1H-pyrrolo[2,3-b]pyridin-2-yl)-1H-pyrazolo[3,4-b]pyridin-5-yl)pyridin-3-yl)methyl)ethanamine] | > 10 µM | > 10 µM | 8.2% | 17% | > 10 µM | 5.1%
CC(C)C(=O)Nc1cncc(-c2cnc3[nH]nc(-c4cc5c(-c6cccnc6)ccnc5[nH]4)c3c2)c1 [Compound 93, N-(5-(3-(4-(Pyridin-3-yl)-1H-pyrrolo[2,3-b]pyridin-2-yl)-1H-pyrazolo[3,4-b]pyridin-5-yl)pyridin-3-yl)isobutyramide] | > 10 µM | > 10 µM | 15.4% | 10.1% | > 10 µM | 42.1%
CC(C)Nc1cncc(-c2cnc3[nH]nc(-c4cc5c(-c6cccnc6)ccnc5[nH]4)c3c2)c1 [Compound 96, N-Isopropyl-5-(3-(4-(pyridin-3-yl)-1H-pyrrolo[2,3-b]pyridin-2-yl)-1H-pyrazolo[3,4-b]pyridin-5-yl)pyridin-3-amine] | > 10 µM | > 10 µM | 30.1% | 14.3% | 1.56 µM | –
CN(C)Cc1cncc(-c2cnc3[nH]nc(-c4cc5c(-c6cccnc6)ccnc5[nH]4)c3c2)c1 [Compound 97, N,N-Dimethyl-1-(5-(3-(4-(pyridin-3-yl)-1H-pyrrolo[2,3-b]pyridin-2-yl)-1H-pyrazolo[3,4-b]pyridin-5-yl)pyridin-3-yl)methanamine] | > 10 µM | > 10 µM | 0% | 19.6% | > 10 µM | 0%
c1cncc(-c2ccnc3[nH]c(-c4n[nH]c5ncc(-c6cncc(CN7CCCCC7)c6)cc45)cc23)c1 [Compound 99, 5-(5-(Piperidin-1-ylmethyl)pyridin-3-yl)-3-(4-(pyridin-3-yl)-1H-pyrrolo[2,3-b]pyridin-2-yl)-1H-pyrazolo[3,4-b]pyridine] | > 10 µM | > 10 µM | 26% | 9.6% | > 10 µM | 73.8%
O=C(Nc1cncc(-c2cnc3[nH]nc(-c4cc5c(-c6cccnc6)ccnc5[nH]4)c3c2)c1)C1CC1 [Compound 104, N-(5-(3-(4-(Pyridin-3-yl)-1H-pyrrolo[2,3-b]pyridin-2-yl)-1H-pyrazolo[3,4-b]pyridin-5-yl)pyridin-3-yl)cyclopropanecarboxamide] | > 10 µM | > 10 µM | 0% | 10.4% | > 10 µM | 19.6%
Nc1cncc(-c2cnc3[nH]nc(-c4cc5c(-c6ccncc6)ccnc5[nH]4)c3c2)c1 [Compound 115, 5-(3-(4-(Pyridin-4-yl)-1H-pyrrolo[2,3-b]pyridin-2-yl)-1H-pyrazolo[3,4-b]pyridin-5-yl)pyridin-3-amine] | > 10 µM | > 10 µM | 5.6% | 0% | 5.9 µM | –
Cc1ccncc1-c1cnc2[nH]nc(-c3cc4c(-c5ccncc5)ccnc4[nH]3)c2c1 [Compound 117, 5-(4-Methylpyridin-3-yl)-3-(4-(pyridin-4-yl)-1H-pyrrolo[2,3-b]pyridin-2-yl)-1H-pyrazolo[3,4-b]pyridine] | > 10 µM | > 10 µM | 13% | 10.1% | > 10 µM | 52.9%
O=C(Nc1cncc(-c2cnc3[nH]nc(-c4cc5c(-c6ccncc6)ccnc5[nH]4)c3c2)c1)c1ccccc1 [Compound 123, N-(5-(3-(4-(Pyridin-4-yl)-1H-pyrrolo[2,3-b]pyridin-2-yl)-1H-pyrazolo[3,4-b]pyridin-5-yl)pyridin-3-yl)benzamide] | > 10 µM | > 10 µM | 5.2% | 12% | > 10 µM | 0%
CCC(=O)Nc1cncc(-c2cnc3[nH]nc(-c4cc5c(N6CCCCC6)ccnc5[nH]4)c3c2)c1 [Compound 169, N-(5-(3-(4-(Piperidin-1-yl)-1H-pyrrolo[2,3-b]pyridin-2-yl)-1H-pyrazolo[3,4-b]pyridin-5-yl)pyridin-3-yl)propionamide] | 0.861 µM | > 10 µM | – | 36.1% | 2.98 µM | –
